ChEMBL document CHEMBL5360649, “Potential Broad-Spectrum Antimicrobial, Wound Healing, and Disinfectant Cationic Peptide Crafted from Snake Venom” (J Med Chem, 2023)
Calls of active or inactive are those of the source.

What was measured:
[1] = Stability in human serum assessed as intact peptide remaining at 1 mM measured after 12 hrs by HPLC analysis; format: ADME, cell-free; details: read-out: Stability
Cell membrane = assay: Induction of cytoplasmic membrane depolarization in Escherichia coli assessed as increase in fluorescence intensity at 0.5 to 1 times of MIC by DiSC3-5 dye based fluorescence method; format: subcellular
Rattus norvegicus [2] = organism: Rattus norvegicus; assay: Induction of wound healing in surgically-induced Albino Wistar rat wound model assessed as proper formation of hair follicles at 10 uM measured after 11 days by H&E staining based analysis; format: functional; details: time 11.0 day
Staphylococcus aureus [3] = assay: Induction of morphological changes in methicillin-resistant Staphylococcus aureus assessed as cellular destruction at MIC concentration incubated for 6 hrs by SEM analysis; format: functional, organism-based
Staphylococcus aureus [4] = assay: Antibacterial activity against methicillin resistant Staphylococcus aureus assessed as inhibition of bacterial growth incubated for 0.5 to 8.5 hrs by microtiter plate reader analysis; format: functional, organism-based; details: dose 1.25-40 µM, time 0.5-8.5 hrs
Escherichia coli [5] = assay: Induction of morphological changes in Escherichia coli assessed as cellular destruction at MIC concentration incubated for 6 hrs by SEM analysis; format: functional, organism-based
Pseudomonas aeruginosa [6] = assay: Induction of morphological changes in Pseudomonas aeruginosa assessed as cellular destruction at MIC concentration incubated for 6 hrs by SEM analysis; format: functional, organism-based
Staphylococcus aureus [7] = assay: Antibacterial activity against methicillin-resistant Staphylococcus aureus assessed as induction of cellular damage at MIC concentration incubated for 30 mins by SYTO9/PI staining based fluorescence microscopic analysis; format: functional, organism-based
Pseudomonas aeruginosa [8] = assay: Antibacterial activity against Pseudomonas aeruginosa assessed as inhibition of bacterial growth at 1.25 to 40 uM by microtiter plate reader analysis; format: functional, organism-based; details: dose 1.25-40 µM, time 0.5-8.5 hrs, TDE = time-dependent effect
U-937 [9] = assay: Immunomodulatory activity in human U-937 cells assessed as effect on TNF-alpha expression level at 5 to 10 uM incubated for 24 hrs by radioimmunoprecipitation based dot-plot analysis; format: functional, cell-based; details: dose 5-10 µM
Klebsiella pneumoniae [10] = assay: Bactericidal activity against Klebsiella pneumoniae ATCC BAA-1705 assessed as reduction in bacterial growth incubated for 24 hrs by Mueller Hinton Agar based plate analysis; format: functional
NMDF [11] = assay: Induction of cell migration in NMDF cells at 10 uM incubated for 24 hrs by wound healing scratch/mirgation assay; format: functional, cell-based; details: Mus musculus
Staphylococcus aureus [12] = assay: Induction of morphological changes in methicillin-resistant Staphylococcus aureus at MIC concentration incubated for 6 hrs by SEM analysis; format: functional, organism-based
Staphylococcus aureus [13] = assay: Antibiofilm activity against methicillin-resistant Staphylococcus aureus assessed as biofilm eradication at 0.5 times of MIC incubated for 24 hrs by CV staining based analysis relative to control; format: functional
Rattus norvegicus [14] = organism: Rattus norvegicus; assay: Induction of wound healing in surgically-induced Albino Wistar rat wound model inoculated with methicillin-resistant Staphylococcus aureus assessed as dense epithelial-tissue layers at 10 uM measured after 11 days by H&E staining based analysis; format: functional; details: time 11.0 day
Klebsiella pneumoniae [15] = assay: Antibiofilm activity against Klebsiella pneumoniae assessed as biofilm clearance incubated for 24 hrs by Congo red dye based fluorescence analysis; format: functional, organism-based
[16] = Hemolytic activity in human RBC assessed as hemolysis at 25 uM incubated for 30 mins under shaking condition by multiplate reader analysis relative to control; format: toxicity, cell-based, Erythrocyte; details: human red blood cells (RBC), read-out: Activity
Escherichia coli [17] = assay: Induction of morphological changes in Escherichia coli assessed as membrane perturbation at MIC concentration incubated for 60 mins by SEM analysis; format: functional, organism-based
Erythrocyte = assay: Cytotoxicity against human RBC assessed as less damage to cells at 12.5 to 25 uM by SEM analysis; format: toxicity, cell-based; details: dose 12.5-25 µM
NMDF [18] = assay: Induction of cell migration in NMDF cells at 5 uM incubated for 24 hrs by wound healing scratch/mirgation assay; format: functional, cell-based; details: Mus musculus
Staphylococcus aureus [19] = assay: Antibacterial activity against patient-derived methicillin-resistant Staphylococcus aureus assessed as inhibition of bacterial growth at 25 to 100 uM incubated overnight by spotting assay; format: functional, organism-based; details: dose 25-100 µM
Pseudomonas aeruginosa [20] = assay: Antibacterial activity against Pseudomonas aeruginosa assessed as inhibition of bacterial growth at 1.25 to 40 uM incubated for 8 hrs by microtiter plate reader analysis; format: functional, organism-based; details: dose 1.25-40 µM
Pseudomonas aeruginosa [21] = assay: Induction of morphological changes in Pseudomonas aeruginosa at MIC concentration incubated for 6 hrs by SEM analysis; format: functional, organism-based
Staphylococcus aureus [22] = assay: Antibiofilm activity against methicillin-resistant Staphylococcus aureus assessed as biofilm eradication at 1 times of MIC incubated for 24 hrs by CV staining based analysis relative to control; format: functional
Klebsiella pneumoniae [23] = assay: Induction of morphological changes in carbapenem resistant Klebsiella pneumoniae ATCC BAA-1705 assessed as cellular defacement at MIC concentration incubated for 60 mins by SEM analysis; format: functional, organism-based
Klebsiella pneumoniae [24] = assay: Induction of morphological changes in carbapenem resistant Klebsiella pneumoniae ATCC BAA-1705 assessed as membrane damage at MIC concentration incubated for 60 mins by SEM analysis; format: functional, organism-based
Klebsiella pneumoniae [25] = assay: Induction of morphological changes in carbapenem resistant Klebsiella pneumoniae ATCC BAA-1705 assessed as cellular destruction at MIC concentration incubated for 6 hrs by AFM analysis; format: functional, organism-based
Rattus norvegicus [26] = organism: Rattus norvegicus; assay: Induction of wound healing in surgically-induced Albino Wistar rat wound model inoculated with methicillin-resistant Staphylococcus aureus assessed as hair follicle formation at 10 uM measured after 11 days by H&E staining based analysis; format: functional; details: time 11.0 day
Pseudomonas aeruginosa [27] = assay: Antibiofilm activity against Pseudomonas aeruginosa in the presence of Na+; format: functional, organism-based
Klebsiella pneumoniae [28] = assay: Antibacterial activity against Klebsiella pneumoniae assessed as cell division block by measuring cellular elongation at 0.5 to 1 times of MIC incubated for 30 mins by SYTO9/PI staining based fluorescence microscopic analysis; format: functional, organism-based
Klebsiella pneumoniae [29] = assay: Antibiofilm activity against Klebsiella pneumoniae in the presence of Cl-; format: functional, organism-based
Pseudomonas aeruginosa [30] = assay: Induction of morphological changes in Pseudomonas aeruginosa assessed as inhibition of cell division by measuring filamented cells at MIC concentration incubated for 60 mins by SEM analysis; format: functional, organism-based
U-937 [31] = assay: Immunomodulatory activity in human U-937 cells assessed as effect on IL-6 expression level at 5 to 10 uM incubated for 24 hrs by radioimmunoprecipitation based dot-plot analysis; format: functional, cell-based; details: dose 5-10 µM
Klebsiella pneumoniae [32] = assay: Induction of morphological changes in carbapenem resistant Klebsiella pneumoniae ATCC BAA-1705 assessed as inhibition of cell division by measuring elongated cells at MIC concentration incubated for 60 mins by SEM analysis; format: functional, organism-based
Rattus norvegicus [33] = organism: Rattus norvegicus; assay: Induction of wound healing in surgically-induced Albino Wistar rat wound model assessed as reduction in inflammatory activity at 10 uM measured after 11 days by H&E staining based analysis; format: functional; details: time 11.0 day
Pseudomonas aeruginosa [34] = assay: Antibiofilm activity against Pseudomonas aeruginosa assessed as biofilm eradication at 0.5 times of MIC incubated for 24 hrs by CV staining based analysis relative to control; format: functional
Pseudomonas aeruginosa [35] = assay: Bactericidal activity against patient-derived Pseudomonas aeruginosa assessed as reduction in bacterial growth incubated for 24 hrs by Mueller Hinton Agar based plate analysis; format: functional
Staphylococcus aureus [36] = assay: Induction of morphological changes in methicillin resistant Staphylococcus aureus assessed as decrease in legible cells at MIC concentration incubated for 6 hrs by AFM analysis; format: functional, organism-based
Klebsiella pneumoniae [37] = assay: Antibiofilm activity against Klebsiella pneumoniae assessed as biofilm eradication at 0.5 times of MIC incubated for 24 hrs by CV staining based analysis relative to control; format: functional

H-FLPIIKWVKKFFWRWR-OH
active: Activity (Cell membrane) | Activity (Rattus norvegicus [2]) | Activity (Staphylococcus aureus [3]) | Activity (Staphylococcus aureus [4]) Dose-Dependent Effect | Activity (Escherichia coli [5]) | Activity (Pseudomonas aeruginosa [6]) | Activity (Staphylococcus aureus [7]) | Activity (Pseudomonas aeruginosa [8]) Tde | Activity (U-937 [9]) | Activity (NMDF [11]) | Activity (Staphylococcus aureus [12]) | Activity (Rattus norvegicus [14]) | Activity (Klebsiella pneumoniae [15]) Dose-Dependent Effect | Activity (Escherichia coli [17]) | Activity (Staphylococcus aureus [19]) | Activity (Pseudomonas aeruginosa [20]) | Activity (Pseudomonas aeruginosa [21]) | Activity (Klebsiella pneumoniae [23]) | Activity (Klebsiella pneumoniae [24]) | Activity (Klebsiella pneumoniae [25]) | Activity (Rattus norvegicus [26]) | Activity (Pseudomonas aeruginosa [27]) | Activity (Klebsiella pneumoniae [28]) | Activity (Klebsiella pneumoniae [29]) | Activity (Pseudomonas aeruginosa [30]) | Activity (U-937 [31]) | Activity (Klebsiella pneumoniae [32]) | Activity (Rattus norvegicus [33]) | Activity (Staphylococcus aureus [36])
inactive: Activity (NMDF [18])
<=87.6%: Activity (Staphylococcus aureus [22])
Non-Toxic: Activity (Erythrocyte)
20.4%: hemolysis at 0.5 h, 25 µM [16]
~70%: Activity (Staphylococcus aureus [13])
~62%: Activity (Klebsiella pneumoniae [37])
54.5%: remaining at 12 h, 1000 µM [1]
11 µM: MBC (Klebsiella pneumoniae [10])
6 µM: MBC (Pseudomonas aeruginosa [35])
~50%: Activity (Pseudomonas aeruginosa [34])
